This passage reports EC50 results from patent US11384078B2, “5,6-fused-bicyclic compounds and compositions for the treatment of parasitic diseases” (NOVARTIS AG, priority 2017, dated 2022).

Format in all cases: cell-based
The subject of assay [1] is Trypanosoma brucei brucei (Lister 427) strain. The assay is described as follows: Assay for growth inhibition against Trypanosoma brucei brucei (Cell TiterGlo ATP luminescence). Conditions: Trypanosoma brucei, T. brucei brucei (Lister 427); read-out: T. Brucei (HAT) EC50. The method, boiled down: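 T. b. brucei Lister 427 grown in HMI-9 with 10% FBS and 10% serum plus, seeded at 10,000 parasites/mL with 10-point threefold compound dilutions in duplicate, 37 °C for 2 days. Viability read as ATP luminescence 30 min after Cell TiterGlo; IC50 versus untreated controls.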

Assay [2] relates to L. donovani HU3 strain in mouse peritoneal macrophages. The experiment in a line: Assay for inhibition of parasitemia of Leishmania donovani in mouse macrophages (SYBR Green nuclei count, high-content imaging). The conditions noted are these: Leishmania donovani, Peritoneal macrophage, L. donovani in mouse peritoneal macrophages; read-out: L. donovani in Mouse Macrophages EC50. The procedure, abridged: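 Peritoneal macrophages from uninfected BALB/c mice were infected for 24 h with spleen-derived L. donovani HU3 (4×10^5 parasites per 2×10^4 macrophages), then cultured with compound for 5 days at 37° C, 5% CO2. After fixation and permeabilization, parasite nuclei were stained with SYBR Green and counted by high-content imaging.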

Assay [3] deals with Trypanosoma cruzi amastigotes cultured in 3T3 fibroblast cells. The experiment in a line: Assay for growth inhibition of kinetoplastid parasite Trypanosoma cruzi (beta-galactosidase Tulahuen strain, CPRG readout). Conditions: Trypanosoma cruzi, Fibroblast, T. cruzi amastigotes in 3T3 fibroblast cells; read-out: Buckner infectious T. cruzi EC50. The procedure, abridged: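 3T3 fibroblasts (1,000 cells/well) plated overnight, treated with compound in DMSO, then infected with 10,000 Lac-Z-expressing Tulahuen trypomastigotes. After 6 days, 0.6 mM CPRG with 0.6% NP-40 added for 2 h at room temperature; absorbance gives relative intracellular amastigote numbers. Benznidazole and nifurtimox serve as positive controls.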

The subject of assay [4] is Leishmania donovani axenic amastigote. The assay is described as follows: In vitro assay for growth inhibition of Leishmania donovani axenic amastigote (Cell TiterGlo luminescence). Conditions: Leishmania donovani, L. donovani axenic amastigotes in vitro; read-out: L. donovani amastigotes EC50. The procedure, abridged:
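Axenic L. donovani amastigotes (9600/well) grown at 37 °C, 5% CO2 in supplemented RPMI 1640, pH 5.5, with compound added from DMSO. After two days, viability read by CellTiter-Glo luminescence against DMSO and control-compound wells.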
For orientation: In ATP-based viability assays light output follows the ATP content of the culture.

As a reminder, the EC50 is the concentration needed to bring the measured effect to its halfway point.

In the case of `CCCC(C)c1cnc2nn(-c3cc(NC(=O)N4CC[C@@H](F)C4)ccc3F)cc2c1` (stereo partly drawn) [Compound 48, (3R)-3-fluoro-N-{4-fluoro-3-[5-(pentan-2-yl)-2H-pyrazolo[3,4-b]pyridin-2-yl]phenyl}pyrrolidine-1-carboxamide], the EC50 came to 50 nM in assay [1], 330 nM in assay [2], 290 nM in assay [3] and 350 nM in assay [4].

`CCC(C)(C)c1cnc2nn(-c3cc(NC(=O)N4CC[C@@H](F)C4)ccc3F)cc2c1` [Compound 49, (3R)-3-fluoro-N-{4-fluoro-3-[5-(2-methylbutan-2-yl)-2H-pyrazolo[3,4-b]pyridin-2-yl]phenyl}pyrrolidine-1-carboxamide]: the EC50 in assay [1] was 3400 nM; in assay [2] it was 12000 nM; in assay [3], 12000 nM; in assay [4] it was 25000 nM.

Turning to `CCC(C)c1cnc2nn(-c3cc(NC(=O)N4CC[C@@H](F)C4)ccc3F)cc2c1` (stereo partly drawn) [Compound 50, (3R)-N-{3-[5-(butan-2-yl)-2H-pyrazolo[3,4-b]pyridin-2-yl]-4-fluorophenyl}-3-fluoropyrrolidine-1-carboxamide], the EC50 in assay [1] is less than 23 nM; in assay [2], 100 nM; in assay [3], 79 nM; in assay [4], 78 nM.

For the molecule `CC(C)CCc1cnc2nn(-c3cc(NC(=O)N4CC[C@@H](F)C4)ccc3F)cc2c1` [Compound 52, (3R)-3-fluoro-N-{4-fluoro-3-[5-(3-methylbutyl)-2H-pyrazolo[3,4-b]pyridin-2-yl]phenyl}pyrrolidine-1-carboxamide], the EC50 was less than 23 nM in assay [1], 11 nM in assay [2], 13 nM in assay [3] and 19 nM in assay [4].

For `O=C(Nc1ccc(F)c(-n2cc3cc(-c4ccccn4)cnc3n2)c1)N1CC[C@@H](F)C1` [Compound 53, (3R)-3-fluoro-N-{4-fluoro-3-[5-(pyridin-2-yl)-2H-pyrazolo[3,4-b]pyridin-2-yl]phenyl}pyrrolidine-1-carboxamide], the EC50 in assay [1] was less than 23 nM; in assay [2], 2 nM; in assay [3] it was 1 nM; in assay [4], 1.3 nM.

With `CC(C)(C)Cc1cnc2nn(-c3cc(NC(=O)c4ccco4)ccc3F)cc2c1` [Compound 59, N-{3-[5-(2,2-dimethylpropyl)-2H-pyrazolo[3,4-b]pyridin-2-yl]-4-fluorophenyl}furan-2-carboxamide], the EC50 in assay [1] was less than 23 nM; in assay [2], 21 nM; in assay [3], 4.7 nM; in assay [4], 68 nM.

In the case of `CCC(C)(C)c1cnc2nn(-c3cc(NC(=O)c4ccco4)ccc3F)cc2c1` [Compound 60, N-{4-fluoro-3-[5-(2-methylbutan-2-yl)-2H-pyrazolo[3,4-b]pyridin-2-yl]phenyl}furan-2-carboxamide], the EC50 in assay [1] is 1300 nM; in assay [2], 2400 nM; in assay [3], 440 nM; in assay [4], 2000 nM.

Turning to `O=C(Nc1ccc(F)c(-n2cc3cc(-c4ccccn4)cnc3n2)c1)c1ccco1` [Compound 64, N-{4-fluoro-3-[5-(pyridin-2-yl)-2H-pyrazolo[3,4-b]pyridin-2-yl]phenyl}furan-2-carboxamide], the EC50 in assay [1] was less than 23 nM; in assay [2], 3.9 nM; in assay [3] it was 1 nM; in assay [4] it was 2.2 nM.

On to `Cc1cnc(C(=O)Nc2ccc(F)c(-n3cc4cc(C(C)C)cnc4n3)c2)cn1` [Compound 65, N-{4-fluoro-3-[5-(propan-2-yl)-2H-pyrazolo[3,4-b]pyridin-2-yl]phenyl}-5-methylpyrazine-2-carboxamide], for which the EC50 in assay [1] turned out to be 1400 nM; in assay [2], 1200 nM; in assay [3] it was 960 nM; in assay [4], 1000 nM.

Consider `CC1CCC(C(=O)Nc2ccc(F)c(-n3cc4cc(C(C)C)cnc4n3)c2)C1` (stereo not drawn) [Compound 66, N-{4-fluoro-3-[5-(propan-2-yl)-2H-pyrazolo[3,4-b]pyridin-2-yl]phenyl}-3-methylcyclopentane-1-carboxamide], for which the EC50 in assay [1] worked out at 120 nM; in assay [2] it was 870 nM; in assay [3] it was 150 nM; in assay [4], 740 nM.

On to `CC(C)c1cnc2nn(-c3cc(NC(=O)c4ccc(F)cn4)ccc3F)cc2c1` [Compound 67, 5-fluoro-N-{4-fluoro-3-[5-(propan-2-yl)-2H-pyrazolo[3,4-b]pyridin-2-yl]phenyl}pyridine-2-carboxamide], for which the EC50 in assay [1] was greater than 50000 nM; in assay [2], 310 nM; in assay [3] it was 42 nM; in assay [4], 210 nM.

For `Cc1nc(C(=O)Nc2ccc(F)c(-n3cc4cc(C(C)C)cnc4n3)c2)c(C(F)(F)F)o1` [Compound 68, N-{4-fluoro-3-[5-(propan-2-yl)-2H-pyrazolo[3,4-b]pyridin-2-yl]phenyl}-2-methyl-5-(trifluoromethyl)-1,3-oxazole-4-carboxamide], the EC50 in assay [1] stood at 510 nM; in assay [2], 2800 nM; in assay [3], 160 nM; in assay [4], 2200 nM.

In the case of `CC(C)c1cnc2nn(-c3cc(NC(=O)CC4CC4)ccc3F)cc2c1` [Compound 69, 2-cyclopropyl-N-{4-fluoro-3-[5-(propan-2-yl)-2H-pyrazolo[3,4-b]pyridin-2-yl]phenyl}acetamide], the EC50 in assay [1] was found to be 40 nM; in assay [2] it was 150 nM; in assay [3], 68 nM; in assay [4] it was 170 nM.

As for `CC(C)c1cnc2nn(-c3cc(NC(=O)c4ncc(F)cc4F)ccc3F)cc2c1` [Compound 70, 3,5-difluoro-N-{4-fluoro-3-[5-(propan-2-yl)-2H-pyrazolo[3,4-b]pyridin-2-yl]phenyl}pyridine-2-carboxamide], the EC50 in assay [1] came out at 38 nM; in assay [2] it was 100 nM; in assay [3] it was 22 nM; in assay [4], 140 nM.

On to `CC(C)c1cnc2nn(-c3cc(NC(=O)C4CCC(C(F)(F)F)C4)ccc3F)cc2c1` (stereo not drawn) [Compound 71, N-{4-fluoro-3-[5-(propan-2-yl)-2H-pyrazolo[3,4-b]pyridin-2-yl]phenyl}-3-(trifluoromethyl)cyclopentane-1-carboxamide], for which the EC50 in assay [1] amounted to 3000 nM; in assay [2], 2800 nM; in assay [3] it was 1400 nM; in assay [4], 4800 nM.

On to `Cc1cc(C(=O)Nc2ccc(F)c(-n3cc4cc(C(C)C)cnc4n3)c2)c(C)o1` [Compound 72, N-{4-fluoro-3-[5-(propan-2-yl)-2H-pyrazolo[3,4-b]pyridin-2-yl]phenyl}-2,5-dimethylfuran-3-carboxamide], for which the EC50 in assay [1] came to 420 nM; in assay [2], 1400 nM; in assay [3], 180 nM; in assay [4], 2100 nM.

Turning to `Cc1ncoc1C(=O)Nc1ccc(F)c(-n2cc3cc(C(C)C)cnc3n2)c1` [Compound 73, N-{4-fluoro-3-[5-(propan-2-yl)-2H-pyrazolo[3,4-b]pyridin-2-yl]phenyl}-4-methyl-1,3-oxazole-5-carboxamide], the EC50 came to 37 nM in assay [1], 220 nM in assay [2], 57 nM in assay [3] and 100 nM in assay [4].

`Cc1nc(C(=O)Nc2ccc(F)c(-n3cc4cc(C(C)C)cnc4n3)c2)c(C)o1` [Compound 74, N-{4-fluoro-3-[5-(propan-2-yl)-2H-pyrazolo[3,4-b]pyridin-2-yl]phenyl}-2,5-dimethyl-1,3-oxazole-4-carboxamide]: the EC50 turned out to be 110 nM in assay [1], 820 nM in assay [2], 57 nM in assay [3] and 760 nM in assay [4].
